Among the data in US11850287B2, “Heterocyclic acyl hydrazone linkers, methods and uses thereof” (Ontario Institute for Cancer Research (OICR), priority 2017, dated 2023) are half-life and IC50 values, retold here.

Series [1] in a line: Half-life of model acyl hydrazones in a simulated lysosomal environment (pH 4.5). The series is classed as physicochemical. The conditions noted are these: simulated lysosomal environment (acidic buffer). The text has this: Ranging from the intracellularly readily cleavable linkers such as the acyl hydrazones to the relatively stable non-cleavable linkers, having the ability to tune the rate of release of the payload and to improve plasma stability provides opportunities not only to target a greater variety of diseased cells, but also to design agents tailored to achieve a better therapeutic window. Towards the goal of developing enhanced control of ADC linker stability, several model heterocyclic acyl hydrazones whose lability is modulated either by steric or stereoelectronic effects have been prepared.
Towards the goal developing enhanced control of ADC linker stability, several model cyclic acyl hydrazones whose lability is modulated by different substitutions have been prepared. Exemplary acyl hydrazones containing a substituted phenyl group adjacent to the imine carbon have been synthesized. […] Analogues of the heterocyclic linker compounds in Table 1 have been incorporated into linkers, using a similar strategy as employed in the linker synthesis in Mylotarg, as described in greater detail herein below

Another series relates to SKOV3 ovarian cells. Nature of the series: Cytotoxicity against SKOV3 ovarian cancer cells (ATP content, CellTiter-Glo). It is filed as cell-based. The conditions noted are these: DAR ratio 3.39 (Synagis-SMCC-DM1), 3.50 (Trastuzumab-SMCC-DM1), 6.59 (IIIa), 6.99 (IIIc). (ATP-based viability assays read luminescence as a measure of living cells.)

Procedure for SKOV3 ovarian cells: SKOV3 ovarian cells are incubated with the effectors for a period corresponding to 2 to 3 times their estimated doubling time and the amount of viable cells is determine by measuring ATP content in the wells. […] All ADCs are diluted in DPBS to 6× the highest concentration tested, followed by 10 3-fold serial dilutions in DPBS for a total of 11 concentration points. Each point is added to triplicate wells. DPBS is added in wells to measure the maximum growth. Cells are diluted at their appropriate seeding density (ranging from 150 to 1000 cells per well) in complete media supplemented with glutamine 2 mM, serum and antibiotic cocktail. They are distributed in white, opaque bottom, tissue-culture treated 384 well plates and incubated for 24 hrs at 37° C.+5% CO2. […] Total ATP is measured using CellTiter-Glo reagent from Promega as recommended by the supplier. […] Signal output is measured on a luminescence plate reader (envision, Perkin Elmer) set at an integration time of 0.1 sec. […]
Each concentration point (S) is normalized to the negative control wells (NC) and expressed as % survival (NC-S/NC×100). Potency (IC50) and efficacy are calculated from a non-linear curve fit of the points versus log of the concentrations without constrain on the slope. Refined data are analysed using Prism software.

Regarding `CC(=O)N/N=C1\CCOc2ccc(F)cc21` [E], the half-life in series [1] was 2.32 h.

With Synagis-SMCC-DM1: negative control ADC, in the series on SKOV3 ovarian cells, the IC50 stood at 9.64 nM.

As usually defined, the half-life is how long it takes for the measured level to halve. Higher therefore signals slow decline. The IC50 is the concentration that inhibits the measured activity by half.
